Data: EP3325465B1, “PESTICIDALLY ACTIVE PYRAZOLE DERIVATIVES” (Syngenta Participations AG, priority 2015, dated 2017)
Where two headings read alike, the source gives them in different places.

Key:
Type in all cases: in vivo
[1] = test system: Spodoptera littoralis (Egyptian cotton leaf worm); experiment: Spodoptera littoralis cotton leaf disc spray test, L1 larvae; conditions: foliar, 72 h
Source text: (§1) The pesticidal/insecticidal properties of the compounds according to embodiments 1 or 2 can be illustrated via the following tests: Spodoptera littoralis (Egyptian cotton leaf worm) • Cotton leaf discs were placed onto agar in 24-well microtiter plates and sprayed with aqueous test solutions prepared from 10'000 ppm DMSO stock solutions. After drying the leaf discs were infested with five L1 larvae. […] Plutella xylostella (Diamond back moth): 24-well microtiter plates with artificial diet were treated with aqueous test solutions prepared from 10'000 ppm DMSO stock solutions by pipetting. After drying, the plates were infested with L2 larvae (10 to 15 per well). The samples were assessed for mortality and growth inhibition in comparison to untreated samples 5 days after infestation. […] Diabrotica balteata, (Corn root worm) • Maize sprouts placed onto an agar layer in 24-well microtiter plates were treated with aqueous test solutions prepared from 10'000 ppm DMSO stock solutions by spraying. After drying, the plates were infested with L2 larvae (6 to 10 per well). […] Thrips tabaci (Onion thrips): Sunflower leaf discs were placed on agar in 24-well microtiter plates and sprayed with aqueous test solutions prepared from 10'000 ppm DMSO stock solutions. After drying the leaf discs were infested with a thrips population of mixed ages. The samples were assessed for mortality 6 days after infestation. […] Tetranychus urticae (Two-spotted spider mite): Bean leaf discs on agar in 24-well microtiter plates were sprayed with aqueous test solutions prepared from 10'000 ppm DMSO stock solutions. After drying the leaf discs were infested with a mite population of mixed ages. The samples were assessed for mortality on mixed population (mobile stages) 8 days after infestation. […] Euschistus heros (Neotropical Brown Stink Bug): • Two weeks old soybean plants were sprayed in a turn table spray chamber with the diluted spray solutions. After drying 2 soybean seeds were added and plants were infested with 10 N2 nymphs of the neotropical brown stink bug Euschistus heros in plastic test boxes. The samples were assessed for mortality in comparison to untreated samples 5 days after infestation. • The following compounds gave at least 80% mortality of Euschistus heros at an application rate of 12.5 ppm: Compounds 3 , 4 , 8 , 39 , 43 , 44 , 46 , 75 , 76 , 77 , 78 , 79 , 80 , 81 , 82 , 88 , 90 , 93 and 95 . Myzus persicae (Green peach aphid): Sunflower leaf discs were placed on agar in a 24-well microtiter plate and sprayed with test solutions at an application rate of 200 ppm. After drying, the leaf discs were infested with an aphid population of mixed ages. After an incubation period of 6 DAT, samples were checked for mortality. The following compounds gave at least 50% mortality of Myzus persicae: Compounds 3 , 4 , 8 , 43 , 44 , 75 , 76 , 77 , 80 , 81 , 90 and 92 . Myzus persicae (Green peach aphid): • Test compounds were applied by pipette into 24 well plates and mixed with Sucrose solution. Application rate: 12.5ppm. The plates were closed with a stretched parafilm. A plastic stencil with 24 holes is placed onto the plate and infested pea seedlings were placed directly on the Parafilm. The infested plate is closed with a gel blotting paper and another plastic stencil and then turned upside down. […]

[2] = test system: Plutella xylostella (Diamond back moth); experiment: Plutella xylostella artificial diet test, L2 larvae; conditions: 120 h, application rate of 200 ppm, mortality and growth inhibition 5 days after infestation
Source text: as §1

[3] = test system: Diabrotica balteata, (Corn root worm); experiment: Diabrotica balteata maize sprout spray test, L2 larvae; conditions: 96 h
Source text: as §1

[4] = test system: Thrips tabaci (Onion thrips); experiment: Thrips tabaci sunflower leaf disc spray test; conditions: foliar, 144 h, application rate of 200 ppm, mortality 6 days after infestation, mixed ages
Source text: as §1

[5] = test system: Tetranychus urticae (Two-spotted spider mite); experiment: Tetranychus urticae bean leaf disc spray test; conditions: foliar, 192 h, application rate of 200 ppm, mortality on mixed population (mobile stages) 8 days after infestation
Source text: as §1

[6] = test system: Euschistus heros (Neotropical Brown Stink Bug); experiment: Euschistus heros soybean plant spray test, N2 nymphs; conditions: 120 h, read-out: mortality of Euschistus heros
Source text: as §1

[7] = test system: Myzus persicae (Green peach aphid); experiment: Myzus persicae sunflower leaf disc spray test; conditions: foliar, 144 h, read-out: mortality of Myzus persicae
Source text: as §1

[8] = test system: Myzus persicae (Green peach aphid); experiment: Myzus persicae sucrose solution / Parafilm feeding test; conditions: 120 h, read-out: mortality of Myzus persicae
Source text: as §1

[9] = application rate of 200 ppm, 3 days after infestation, L1 larvae, read-out: mortality
[10] = application rate of 200 ppm, 4 days after infestation, L2 larvae, read-out: mortality
[11] = application rate of 12.5 ppm, 5 days after infestation, N2 nymphs
[12] = application rate of 200 ppm, leaf disc spray, 6 DAT
[13] = Application rate: 12.5ppm, sucrose solution, 5 days after infestation

SMILES	mortality at 200 ppm [1]	pest or weed control at 200 ppm [2]	mortality at 200 ppm [3]	pest or weed control at 200 ppm [4]	pest or weed control at 200 ppm [5]	mortality at 12.5 ppm [6]	mortality at 200 ppm [7]	mortality at 12.5 ppm [8]	mortality at 200 ppm [1, 9]	mortality at 200 ppm [3, 10]	mortality at 12.5 ppm [6, 11]	mortality at 200 ppm [7, 12]	mortality at 12.5 ppm [8, 13]
Cn1nc(C(F)(F)C(F)(F)F)c(C(F)(F)F)c1-c1cc(-c2ccc(Cl)c(C(=O)NC3(C#N)CC3)c2)no1 [Compound 3, 2-chloro-N-(1-cyanocyclopropyl)-5-[5-[2-methyl-5-(1,1,2,2,2-pentafluoroethyl)-4-(trifluoromethyl)pyrazol-3-yl]isoxazol-3-yl]benzamide]	≥ 80%	≥ 80%	≥ 80%	≥ 80%	≥ 80%	≥ 80%	≥ 50%	≥ 50%					
Cn1nc(C(F)(F)C(F)(F)F)c(C(F)(F)F)c1-c1cc(-c2ccc(Cl)c(C(=O)NC3CC3)c2)on1 [Compound 8, 2-chloro-N-cyclopropyl-5-[3-[2-methyl-5-(1,1,2,2,2-pentafluoroethyl)-4-(trifluoromethyl)pyrazol-3-yl]isoxazol-5-yl]benzamide]		≥ 80%		≥ 80%	≥ 80%				≥ 80%	≥ 80%	≥ 80%	≥ 50%	
Cn1nc(-c2ccc(Cl)c(C(=O)NC3CC3)c2)cc1-c1c(C(F)(F)F)c(C(F)(F)C(F)(F)F)nn1C [Compound 39, 2-chloro-N-cyclopropyl-5-[1-methyl-5-[2-methyl-5-(1,1,2,2,2-pentafluoroethyl)-4-(trifluoromethyl)pyrazol-3-yl]pyrazol-3-yl]benzamide]		≥ 80%		≥ 80%	≥ 80%				≥ 80%	≥ 80%	≥ 80%		≥ 80%
Cn1nc(C(F)(F)C(F)(F)F)c(C(F)(F)F)c1-c1cc(-c2ccc(Cl)c(C(=O)NC3CC3)c2)sn1 [Compound 43, 2-chloro-N-cyclopropyl-5-[3-[2-methyl-5-(1,1,2,2,2-pentafluoroethyl)-4-(trifluoromethyl)pyrazol-3-yl]isothiazol-5-yl]benzamide]		≥ 80%		≥ 80%	≥ 80%				≥ 80%	≥ 80%	≥ 80%	≥ 50%	≥ 80%
Cn1nc(C(F)(F)C(F)(F)F)c(C(F)(F)F)c1-c1cc(-c2ccc(Cl)c(C(=O)NC3(C(=O)O)CC3)c2)on1 [Compound 75, 1-[[2-chloro-5-[3-[2-methyl-5-(1,1,2,2,2-pentafluoroethyl)-4-(trifluoromethyl)pyrazol-3-yl]isoxazol-5-yl]benzoyl]amino]cyclopropanecarboxylic acid]				≥ 80%						≥ 80%	≥ 80%	≥ 50%	≥ 80%
Cn1nc(C(F)(F)C(F)(F)F)c(C(F)(F)F)c1-c1cc(-c2ccc(Cl)c(C(=O)NC3(C(N)=S)CC3)c2)on1 [Compound 76, N-(1-carbamothioylcyclopropyl)-2-chloro-5-[3-[2-methyl-5-(1,1,2,2,2-pentafluoroethyl)-4-(trifluoromethyl)pyrazol-3-yl]isoxazol-5-yl]benzamide]		≥ 80%		≥ 80%	≥ 80%				≥ 80%	≥ 80%	≥ 80%	≥ 50%	≥ 80%
Cn1nc(C(F)(F)C(F)(F)F)c(C(F)(F)F)c1-c1cc(-c2ccc(Cl)c(C(=O)NC3(C(N)=O)CC3)c2)on1 [Compound 77, N-(1-carbamoylcyclopropyl)-2-chloro-5-[3-[2-methyl-5-(1,1,2,2,2-pentafluoroethyl)-4-(trifluoromethyl)pyrazol-3-yl]isoxazol-5-yl]benzamide]		≥ 80%		≥ 80%	≥ 80%				≥ 80%		≥ 80%	≥ 50%	≥ 80%
Cn1nc(C(F)(F)C(F)(F)F)c(C(F)(F)F)c1-c1cc(-c2ccc(Cl)c(C(=O)N[C@H]3C[C@@H]3C(F)(F)F)c2)on1 [Compound 80, 2-chloro-5-[3-[2-methyl-5-(1,1,2,2,2-pentafluoroethyl)-4-(trifluoromethyl)pyrazol-3-yl]isoxazol-5-yl]-N-[(1S,2S)-2-(trifluoromethyl)cyclopropyl]benzamide]		≥ 80%		≥ 80%	≥ 80%				≥ 80%	≥ 80%	≥ 80%	≥ 50%	
Cn1nc(C(F)(F)C(F)(F)F)c(C(F)(F)F)c1-c1cc(-c2ccc(Cl)c(C(=O)NC3CC3F)c2)on1 (centres unmarked) [Compound 81, 2-chloro-N-(2-fluorocyclopropyl)-5-[3-[2-methyl-5-(1,1,2,2,2-pentafluoroethyl)-4-(trifluoromethyl)pyrazol-3-yl]isoxazol-5-yl]benzamide]		≥ 80%		≥ 80%	≥ 80%				≥ 80%	≥ 80%	≥ 80%	≥ 50%	≥ 80%
CCNC(=O)c1cc(-c2cc(-c3c(C(F)(F)F)c(C(F)(F)C(F)(F)F)nn3C)no2)ccc1Cl [Compound 90, 2-chloro-N-ethyl-5-[3-[2-methyl-5-(1,1,2,2,2-pentafluoroethyl)-4-(trifluoromethyl)pyrazol-3-yl]isoxazol-5-yl]benzamide]		≥ 80%		≥ 80%	≥ 80%				≥ 80%	≥ 80%	≥ 80%	≥ 50%	
CNC(=O)c1cc(-c2cc(-c3c(C(F)(F)F)c(C(F)(F)C(F)(F)F)nn3C)no2)ccc1Cl [Compound 92, 2-chloro-N-methyl-5-[3-[2-methyl-5-(1,1,2,2,2-pentafluoroethyl)-4-(trifluoromethyl)pyrazol-3-yl]isoxazol-5-yl]benzamide]		≥ 80%		≥ 80%	≥ 80%				≥ 80%	≥ 80%		≥ 50%	≥ 80%
CC(C)NC(=O)c1cc(-c2cc(-c3c(C(F)(F)F)c(C(F)(F)C(F)(F)F)nn3C)no2)ccc1Cl [Compound 93, 2-chloro-N-isopropyl-5-[3-[2-methyl-5-(1,1,2,2,2-pentafluoroethyl)-4-(trifluoromethyl)pyrazol-3-yl]isoxazol-5-yl]benzamide]		≥ 80%		≥ 80%	≥ 80%				≥ 80%	≥ 80%	≥ 80%		≥ 80%
